Data set [1] relates to SFRP1 and SFRP2 genes in MCF7 cells. Description: RT-PCR re-expression of silenced tumor suppressor genes in MCF7 cells. Conditions: retroviral infection, RT-PCR. It counts as cell-based, human. As for the experimental part: (§1) Cell culture and retroviral infection. MDA-MB-231, MCF7, HCT116, SW480 RKO, and Phoenix cells (ATCC, Rockville, Md., United States) were cultured in Dulbecco's modified Eagle's medium supplemented with 10% fetal bovine serum and 1% penicillin/streptomycin (Invitrogen, Carlsbad, Calif., United States). Retroviral infection was performed using either single or multiple rounds of infection. Briefly, Phoenix cells were transfected with either pBabe, pBabe-SIRT1H363Y, pSUPERretro, pSUPERretro-SIRT1-RNAi-1-3 (NM_012238 positions 410, 589, and 1091; Oligo Engine, Seattle, Wash., United States) using Lipofectamine 2000 (Invitrogen). After 48 h of transfection, the medium containing retrovirus was collected, filtered, and supplemented with Polybrene prior to infection of target cells (MDA-MB-231, MCF7, or HCT116). Infected cells were either harvested 24-48 hours later or subjected to selection with 2-3 μg/ml puromycin for a week prior to harvest and analysis.
(§2) RNA and protein preparation and analysis. Total RNA was extracted (Invitrogen) according to the manufacturer's instructions and subjected to reverse transcription followed by both quantitative real-time and semi-quantitative polymerase chain reaction. For quantitative real-time analyses, the QuantiTect SYBR Green PCR kit (Qiagen, Valencia, Calif., United States) was used and the amplification conditions consisted of an initial 10-minutes denaturation step at 95° C., followed by 40 cycles of denaturation at 95° C. for 15 s and annealing and extension for 30 seconds and 60 seconds, respectively. A BioRad iCycler was used (BioRad, Hercules, Calif., United States), and for quantitation the comparative cycle threshold (Ct) method was used, normalizing the Ct values for the indicated gene to the Ct values of GAPDH relative to a control sample. For conventional PCR, at least two independent sets of intron-spanning primers were used for the analysis of multiple genes, such as CRBP1, (NM_002899), E-cadherin, (L34545), SFRP1, (BC036503), SFRP2, (BC008666), and Gata-4 (L34357). For Western blots, cells stably expressing RNAi constructs were harvested in 50 mM Tris-HCl, 1% NP-40, 0.25% sodium deoxycholate, 150 mM NaCl, 50 mM sodium fluoride, 1 mM dithiothreitol, 1 mM AEBSF, 1× Complete protease inhibitor cocktail (Roche, Basel, Switzerland). Protein concentrations were measured by BCA (Pierce Biotechnology, Rockford, Ill., United States). […] On the same blot, β-actin (Sigma, St. Louis, Mo., United States) was probed to ensure equal loading.

The subject of data set [2] is SFRP1, SFRP2, GATA4 promoter methylation in MDA-MB-231 cells. The experiment in a line: Promoter DNA methylation by bisulfite sequencing and MSP. It counts as cell-based, human. The note with it: MDA-MB-231 cells stably infected. The source says:
The panels of FIG. 3 are as follows. […] Parallel samples analyzed in FIG. 1D were subjected to bisulfite sequencing of the SFRP1 promoter from MDA-MB-231 cells stably infected with control vector or RNAi-2 or RNAi-3 retrovirus. Open circles indicate unmethylated cytosines, and closed circles indicate methylated cytosines. Numbers at the bottom show the position of cytosines relative to the transcription start site, which is at position 0, and those with a minus sign (−) are upstream from this start site. The region sequenced encompasses the CpG island in which methylation status correlates with gene expression status. […] From left to right: (−) PCR Ctrl indicates H2O only; (−) BS ctrl indicates bisulfite-treated H20; (+) M ctrl indicates the cell line in which SFRP1 is partially methylated and SFRP2 and GATA4 are fully methylated; and (+) U ctrl indicates the Tera-2 cell line in which each gene is unmethylated. All remaining lanes are for MDA-MB-231. From left to right: Aza indicates 1 μM Aza (24 hours) treatment; Ctrl indicates empty vector infection; RNAi-2 indicates shRNA-2 infection alone; RNAi-3 indicates shRNA-3 infection alone; Aza indicates 1 μM Aza (24 hours treatment of control cells; Ctrl indicates empty vector infection+vehicle; RNAi-2 indicates shRNA-2 infection+5 mM NIA treatment; and RNAi-3 indicates shRNA-3 infection+5 mM NIA treatment.
MSP and bisulfite sequencing. […]

Data set [3] concerns SIRT1. The experiment in a line: Western blot of SIRT1 protein after retroviral shRNA infection. It counts as cell-based, human. As to the method:
as §1, §2
(Immunoblotting shows a protein as a band on a membrane.)

The test system of data set [4] is E-cadherin and MLH1 protein in MDA-MB-231 and RKO cells. The experiment in a line: Western blot of tumor suppressor protein re-expression. The note with it: puromycin selection 3 days. It counts as cell-based, human. As to the method: The panels in FIG. 1 are as follows. […] Retroviral expression vectors encoding SIRT1 cDNA that produce short hairpin loop RNA targeting either distinct regions of SIRT1 mRNA (RNAi-1, -2, or -3) or a control (ctrl) were used to infect MCF7. Western blot analysis for SIRT1 and β-actin was performed 48 hours after two rounds of infection. […] RNA was isolated from parallel samples analyzed in FIG. 1(A), and RT-PCR was performed with intron-spanning primers specific for the genes SFRP1 and SFRP2. GAPDH was also analyzed as a control. […] Control samples in which no reverse transcriptase was added were analyzed separately, and all were negative for amplification of the indicated genes. […]
RNA and protein preparation and analysis. Total RNA was extracted (Invitrogen) according to the manufacturer's instructions and subjected to reverse transcription followed by both quantitative real-time and semi-quantitative polymerase chain reaction. For quantitative real-time analyses, the QuantiTect SYBR Green PCR kit (Qiagen, Valencia, Calif., United States) was used and the amplification conditions consisted of an initial 10-minutes denaturation step at 95° C., followed by 40 cycles of denaturation at 95° C. for 15 s and annealing and extension for 30 seconds and 60 seconds, respectively. […] Protein concentrations were measured by BCA (Pierce Biotechnology, Rockford, Ill., United States). […]

Data set [5] deals with SFRP1, SFRP2, MLH1, CRBP1, E-cadherin genes in RKO cells. The experiment in a line: RT-PCR re-expression of silenced tumor suppressor genes in RKO cells. It counts as cell-based, human. As for the experimental part: To inhibit any residual SIRT1 protein, remaining RNAi-expressing cells were treated with 700 μM SPT and control samples were treated with DMSO for 24 hours. […] RKO cells were also treated with 0.5 μM Aza (24 hours), and samples were analyzed as described in FIG. 1A; RT-PCR was performed with intron-spanning primers specific for the two genes. GAPDH was also analyzed as a control. […] Control samples in which no reverse transcriptase was added were analyzed separately, and all were negative for amplification of the indicated genes. […] The level of TSG re-expression induced by Aza treatment or SIRT1 inhibition as described in FIG. 4(A) was compared to levels of expression in HCT116 cells in which the TSGs are basally expressed.
as §1, §2
(§3) The results from experiments performed in RKO cells are shown in FIG. 7 which presents RT-PCR results for SFRP1. […] The expression seemed stronger than for 300 μM splitomycin (Spt) or 20 mM nicotinamide (Nia) when these latter two drugs were used alone or in combination, but not as strong as the expression induced by 1 μM of the DNA demethylating agent, deoxy-aza-cytidine (Aza). […] Experiments were carried out as essentially described above.

Data set [6] deals with SFRP1, SFRP2, E-cadherin, CRBP1 genes in MDA-MB-231 cells. The experiment in a line: RT-PCR re-expression of silenced tumor suppressor genes in MDA-MB-231 cells. It counts as cell-based, human. The note with it: MDA-MB-231 cells; shRNA retroviral infection; RT-PCR. As to the method: The panels of FIG. 2 are as follows. […] MDA-MB-231 cells were treated with 15 mM NIA or 300 μM SPT for 21 hours, RNA was isolated, and RT-PCR was performed with intron-spanning primers specific for the indicated genes. Control samples in which no reverse transcriptase was added were analyzed separately, and all were negative for amplification of the indicated genes. […] MDA-MB-231 cells were treated with either 50 nM Aza (+), 100 μM SPT (+) or with both Aza and SPT (++), and 34 hours later, RT-PCR was performed for the indicated genes as described in FIG. 2(A). […] MDA-MB-231 cells were treated with either 0, 50, 100, or 120 μM SPT alone for 34 hours, or the treatment was followed by treatment with 300 nM TSA for 3 hours prior to RNA isolation and RT-PCR analysis. […] MDA-MB-231 cells were infected with low titers of virus for shRNA specific for SIRT1. Aza (100 nM) was added 24 hours prior to RNA isolation, and RT-PCR analysis was performed for the genes SFRP 1, SFRP2, and GAPDH as described in FIG. 2(A). […] As shown in the left panel, MDA-MB-231 cells were infected with a control (vec) or mutant SIRT1 virus (HY), and RT-PCR was performed as described in FIG. 2(A). MDA-MB-231 cells were infected with low titers of pBabe or pBabe-SIRT1H363Y retrovirus and subsequently treated with 100 nM Aza for 24 hours or with 300 nM TSA for 3 hours prior to harvest, and RT-PCR was performed.
as §1, §2

The target in data set [7] is T1, SIRT1 (Homo sapiens, UniProt Q96EB6).
T1 sequence (Q96EB6 1-747): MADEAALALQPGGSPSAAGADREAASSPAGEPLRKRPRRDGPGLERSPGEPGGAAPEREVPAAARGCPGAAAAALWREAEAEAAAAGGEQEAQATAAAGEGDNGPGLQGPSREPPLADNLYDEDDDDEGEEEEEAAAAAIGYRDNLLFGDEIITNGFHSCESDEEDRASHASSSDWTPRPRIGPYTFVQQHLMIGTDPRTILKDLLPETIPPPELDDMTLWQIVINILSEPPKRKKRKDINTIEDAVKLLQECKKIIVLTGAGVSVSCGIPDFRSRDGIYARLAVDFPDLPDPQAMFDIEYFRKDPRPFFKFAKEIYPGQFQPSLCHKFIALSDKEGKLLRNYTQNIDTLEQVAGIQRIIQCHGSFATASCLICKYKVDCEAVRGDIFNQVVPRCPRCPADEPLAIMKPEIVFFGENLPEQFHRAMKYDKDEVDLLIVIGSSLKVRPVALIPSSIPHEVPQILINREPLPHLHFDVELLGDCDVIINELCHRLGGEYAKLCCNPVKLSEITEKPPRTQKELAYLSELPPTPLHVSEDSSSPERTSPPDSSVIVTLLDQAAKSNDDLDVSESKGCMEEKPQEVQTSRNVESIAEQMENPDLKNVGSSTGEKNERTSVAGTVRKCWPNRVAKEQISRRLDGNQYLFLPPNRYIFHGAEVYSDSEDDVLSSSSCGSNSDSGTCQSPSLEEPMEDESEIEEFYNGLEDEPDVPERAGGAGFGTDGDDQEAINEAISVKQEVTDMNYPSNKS
The experiment in a line: Activity against the SIRT1 enzyme / SIRT1 deacetylase activity. It counts as biochemical.

Data set [8] relates to SFRP1 and 2 genes in human breast cancer cells (line H231). The experiment in a line: Re-activation of SFRP1 and 2 genes in breast cancer cells (line H231). It counts as cell-based. As to the method:
This has been accomplished for the SFRP1 and 2 genes in human breast cancer cells (line H231) and for SFRP1 in human colon cancer cells (line RKO).
as §3

“RNAi-3: shRNA targeting SIRT1 mRNA, sequence CATAGACACGCTGGAACAG, NM_012238 position 1091”: the “gene re-expression of SFRP1 and SFRP2” value in data set [1] was “led to gene re-expression”. For the same molecule, in data set [2], the “SFRP1 promoter methylation profile (bisulfite sequencing)” value is given as “without changes in the methylation profile”. Besides, the “reduction of SIRT1 protein (knockdown)” value in the data set on SIRT1 [3] (MCF7 cells, Western blot 48 h after two rounds of infection) was “greatest knockdown”; in the data set with SIRT1 [3] (MDA-MB-231 cells), “very effective in reducing protein levels”; with SIRT1 [3] (RKO cells), “SIRT1 protein reduction”. Besides, the “protein re-expression (E-cadherin, MLH1) by Western blot” value in data set [4] is reported as “protein re-expression that corresponded with the gene reactivation”. Also, the “gene re-expression of CRB1 and E-cadherin” value in data set [5] (RKO cells stably expressing shRNA, treated with 700 μM SPT 24 hours, RT-PCR) is recorded as “leads to gene re-expression”. For the same molecule, the “gene re-expression of SFRP1, SFRP2 and MLH1” value in data set [5] (RKO cells, shRNA retroviral infection, RT-PCR) is “leads to gene re-expression of SFRP1, SFRP2, and MLH1”. Besides, in data set [6], the “gene re-expression of SFRP1, SFRP2 and E-cadherin” value is “led to gene re-expression”.

As to `NC(=O)[C@H]1CCCc2c1[nH]c1ccc(Cl)cc21` [(S)-6-chloro-2,3,4,9-tetrahydro-1H-carbazole-1-carboxamide], the “inhibition of SIRT1 deactylase activity” value on SIRT1 [7] is “potent inhibition”. Also, the “transcriptional re-activation of SFRP1 and 2 genes” value in data set [8] was “the same effects have been achieved”. In data set [5] (RKO cells, RT-PCR), the “SFRP1 expression compared with 1 μM deoxy-aza-cytidine (Aza)” value is recorded as “not as strong” and the “SFRP1 expression compared with 300 μM splitomycin or 20 mM nicotinamide, alone or in combination” value is “stronger”. The “SFRP1 RT-PCR specific band” value in data set [5] (RKO cells, doses of 20 and 50 μM, 24 or 48 hours) is “produce the band at both time points”.

The values above are taken from US20110104177A1, “HISTONE DEACETYLASE INHIBITORS, COMBINATION THERAPIES AND METHODS OF USE” (THE JOHNS HOPKINS UNIVERSITY, priority 2006, published 2011).
